Assay results taken from US20260083704A1, “LXR MODULATORS WITH BICYCLIC CORE MOIETY FOR TREATING DYSLIPIDEMIAS” (OrsoBio, Inc., priority 2022, published 2026).

Key:
[1] = biological target: T1, LXRβ (Homo sapiens, UniProt P55055); test: LXR Gal4 reporter transient transfection assay (mammalian two-hybrid, HEK293), LXRβ; format: cell-based; parameters: LXRβ (amino acids 156-461); expressed in transfected cells; host or cells: HEK293; settings: full length (FL) LXRβ, HEK293; read-out: FL-M2H Gal4β
T1 sequence (P55055 1-460): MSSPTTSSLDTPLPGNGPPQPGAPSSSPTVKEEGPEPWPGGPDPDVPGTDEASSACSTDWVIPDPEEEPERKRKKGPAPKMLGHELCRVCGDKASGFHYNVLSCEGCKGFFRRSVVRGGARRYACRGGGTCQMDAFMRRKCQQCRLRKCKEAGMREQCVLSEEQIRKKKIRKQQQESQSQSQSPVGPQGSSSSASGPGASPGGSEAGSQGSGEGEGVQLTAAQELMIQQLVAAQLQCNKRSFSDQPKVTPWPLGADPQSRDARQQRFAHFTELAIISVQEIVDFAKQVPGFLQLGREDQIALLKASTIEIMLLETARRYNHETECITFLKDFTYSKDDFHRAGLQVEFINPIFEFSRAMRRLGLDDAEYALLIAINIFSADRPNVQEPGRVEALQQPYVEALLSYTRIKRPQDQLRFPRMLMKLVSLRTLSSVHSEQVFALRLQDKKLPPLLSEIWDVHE
Outline: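 HEK293 cells transiently co-transfected with full-length or LBD LXRα/LXRβ fused to NFkB activation domain, GAL4-DBD-fused SRC1 or NCoR cofactor domain, GAL4-responsive firefly luciferase reporter and Renilla control. Compound added 4 h post-transfection (≤0.2% DMSO), incubated 16 h; firefly and Renilla luminescence read sequentially.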

[2] = biological target: T2, GST-LXRβ ligand-binding domain (Homo sapiens, UniProt P55055); test: TR-FRETβ activity assay (NCoA3 coactivator peptide recruitment); format: biochemical; settings: 1 μM 24(S)-25-epoxycholesterol prestimulation
T2 construct: amino acids 156-461; NP009052; made in house; host or cells: E. coli
T2 sequence (P55055 156-460 limits assumed): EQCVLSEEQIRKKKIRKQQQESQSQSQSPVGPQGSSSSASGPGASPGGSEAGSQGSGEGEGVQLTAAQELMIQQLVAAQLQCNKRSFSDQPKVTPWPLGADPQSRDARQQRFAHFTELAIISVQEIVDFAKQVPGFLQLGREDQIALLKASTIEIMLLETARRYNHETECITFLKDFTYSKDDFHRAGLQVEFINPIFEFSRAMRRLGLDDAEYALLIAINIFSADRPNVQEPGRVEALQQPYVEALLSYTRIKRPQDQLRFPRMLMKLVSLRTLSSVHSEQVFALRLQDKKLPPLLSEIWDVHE
Outline: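 E. coli-expressed GST-LXRβ LBD (aa 156-461, 76 nM) with biotinylated NCoA3 peptide (400 nM) in Tris/HCl pH 6.8 containing 1 μM 24(S)-25-epoxycholesterol agonist. Compounds tested at 50 μM down to 0.002 μM in triplicate. TR-FRET (Tb cryptate/XL665, ex 340, em 615/665 nm) read after 1 h at 4° C.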

SMILES	EC50 [1] [nM]	EC50 [2] [nM]
N#Cc1cccc(C#N)c1-c1c(-c2cccc(-c3ccc(C(=O)O)c(F)c3F)c2)n(S(=O)(=O)c2ccc(C(F)F)cc2)c2ccc(F)cc12 [11/52]	< 100	< 100
N#Cc1sccc1-c1c(-c2cccc(-c3ccc(C(=O)O)cc3Cl)c2)n(S(=O)(=O)c2ccc(Cl)cc2)c2ccc(F)cc12 [3/57]	< 100	100 to 1000
Cc1ccc(S(=O)(=O)n2c(-c3cccc(N4CC[C@@H](C(=O)O)C[C@H]4C)c3)c(-c3ccsc3C#N)c3cc(F)ccc32)cc1 [5/9]	< 100	100 to 1000
N#Cc1cccc(C#N)c1-c1c(-c2cccc(C3CC3C(=O)O)c2)n(S(=O)(=O)c2ccc(C(F)F)cc2)c2ccc(F)cc12 (stereo not drawn) [3/68]	< 100	100 to 1000
N#Cc1sccc1-c1c(-c2cccc(-c3ccc(C(=O)O)cc3Cl)c2)n(S(=O)(=O)c2ccc(F)cc2)c2ccc(F)cc12 [11/18]	< 100	100 to 1000
N#Cc1scnc1-c1c(-c2cccc(-c3cc(F)c(C(=O)O)cc3Cl)c2)n(S(=O)(=O)c2ccc(C(F)F)cc2)c2ccc(F)cc12 [11/9]	< 100	< 100
Cc1ccc(S(=O)(=O)n2c(-c3cccc(-c4ccc(C(=O)O)c(F)c4Cl)c3)c(-c3ccsc3C#N)c3cc(F)ccc32)cc1 [12/3]	< 100	100 to 1000
Cc1ccc(S(=O)(=O)n2c(-c3cccc(N4CC(C(=O)O)C4)c3)c(-c3ccccc3C3COC3)c3cc(F)ccc32)cc1 [3/31]	100 to 1000	100 to 1000
O=C(O)c1ccc(-c2cccc(-c3c(-c4ccccc4)c4cc(F)ccc4n3S(=O)(=O)c3ccc(C(F)F)cc3)c2)c(Cl)c1 [C11/39]	< 100	100 to 1000
O=C(O)c1ccc(-c2cccc(-c3c(-c4cccc5nncn45)c4cc(F)ccc4n3S(=O)(=O)c3ccc(C(F)F)cc3)c2)c(Cl)c1 [11/43]	100 to 1000	100 to 1000
Cc1ccc(S(=O)(=O)n2c(-c3cccc(N4CC(C(=O)O)C4)c3)c(-c3ccoc3C#N)c3cc(F)ccc32)cc1 [3/26]	< 100	1000 to 10000
N#Cc1ccc(S(=O)(=O)n2c(-c3cccc(-c4ccc(C(=O)O)cc4Cl)c3)c(-c3ccsc3C#N)c3cc(F)ccc32)cc1 [11/20]	< 100	100 to 1000
N#Cc1cccc(C#N)c1-c1c(-c2cccc(-c3c(F)c(F)c(C(=O)O)c(F)c3F)c2)n(S(=O)(=O)c2ccc(C(F)F)cc2)c2ccc(F)cc12 [11/54]	< 100	< 100
Cc1ccc(S(=O)(=O)n2c(-c3cc(N4CC(C(=O)O)C4)ccc3F)c(-c3ccsc3C#N)c3cc(F)ccc32)cc1 [3/41]	< 100	1000 to 10000
O=C(O)c1ccc(-c2cccc(-c3c(-c4ncccc4N4CC(O)C4)c4cc(F)ccc4n3S(=O)(=O)c3ccc(C(F)F)cc3)c2)c(Cl)c1 [5/10]	100 to 1000	1000 to 10000
Cc1cccc(C)c1-c1c(-c2cccc(-c3ccc(C(=O)O)cc3Cl)c2)n(S(=O)(=O)c2ccc(C(F)F)cc2)c2ccc(F)cc12 [11/14]	< 100	< 100
N#Cc1cccc(C#N)c1-c1c(-c2cccc(-c3ccc(C(=O)O)cc3F)c2)n(S(=O)(=O)C2CCC(C(F)(F)F)CC2)c2ccc(F)cc12 (stereo not drawn) [11/64]	< 100	100 to 1000
CC(C)(C)OC(=O)CNC(=O)c1ccc(-c2cccc(-c3c(-c4c(C#N)cccc4C#N)c4cc(F)ccc4n3S(=O)(=O)c3ccc(C(F)F)cc3)c2)c(Cl)c1 [6/3]	< 100	< 100
O=C(O)c1ccc(-c2cccc(-c3c(-c4ncccc4OC(F)F)c4cc(F)ccc4n3S(=O)(=O)c3ccc(C(F)F)cc3)c2)c(Cl)c1 [11/41]	< 100	< 100
Cc1cc(S(=O)(=O)n2c(-c3cccc(-c4ccc(C(=O)O)cc4Cl)c3)c(-c3ccsc3C#N)c3cc(F)ccc32)ccc1F [3/23]	< 100	100 to 1000
Cc1ccc(S(=O)(=O)n2c(-c3cccc(N4CC(C(=O)O)C4)c3)c(-c3ccsc3C(F)F)c3cc(F)ccc32)cc1 [3/4]	< 100	100 to 1000
